Where two headings read alike, the source gives them in different places.
Tests used:
[1] = test system: soy bean plants; assay: Plant compatibility test using soy bean plants; format: in vivo; conditions: soy bean young plants sprayed at 1000 ppm, evaluated 6 days after application; 0% no damages, 100% totally damaged
Experimental: Plant Compatibility Test Using Soy Bean Plants • Solvent: 24.5 parts by weight of acetone • 24.5 parts by weight of dimethylacetamide • Emulsifier: 1 part by weight of alkylaryl polyglycol ether To produce a suitable preparation of active compound, 1 part by weight of active compound is mixed with the stated amounts of solvent and emulsifier, and the concentrate is diluted with water to the desired concentration. Young plants are sprayed with the preparation of active compound at the stated application rate. The plants are then placed in a greenhouse at approximately 21° C. and a relative atmospheric humidity of approximately 80%. The test is evaluated 6 days after application and comprises plant damages like leaf deformation, chlorosis, necrosis, shoot damage or stunting. The results are summarized in table V. 0% means no damages are observed, while 100% means that the plants are totally damaged.

[2] = Photolysis stability test; format: physicochemical; conditions: dried film in MTP, irradiated at 30° C. and 480 W/m^2, up to 24 h, first order degradation assumed
Experimental: The stability towards photolysis of the phenylamidines described in the prior art is good but an improved stability towards photolysis may be an advantage as it could offer a longer lasting efficacy when applied to plants by foliar application. The improved stability towards photolysis was proven by a […] stability test as described below:
To produce a suitable preparation of active compound for the photolysis stability test, a 1000 ppm stock solution (1 mg/mL) of active compound in acetonitrile is prepared. Aliquots of 25 μL of this stock solution are pipetted in three wells of a Bio-one microtiter plate (MTP) UVStar 96 (Fa. Greiner, Art. No. 655801). The MTP is dried overnight in the dark and then irradiated at 30° C. and 480 W/m^2 with a UV irradiation device SUNTEST XLS+ or SUNTEST CPS (Fa. Atlas). The amount A of the active compound is analyzed by HPLC (UV-peak areas at 210 nm) at five points in time t: 0 h, 2 h, 4 h, 6 h, 24 h by using the following method: 200 μL acetonitrile is added in the respective well of the MTP and the MTP is sealed with a Bio-one sealing foil, viewseal 80/140 mm (Fa. Greiner, Art. No. 676070). The MTPs are sonicated for 3 minutes and analysed by HPLC. The half-life time (T1/2) of each active compound is calculated via linear regression by using the following equations (first order degradation assumed): […]
In table IV the results of the photolysis stability test are shown for the compounds (I-01) and (I-02). […] This increased chemical stability towards photolysis will be of advantage as it will offer a longer lasting efficacy when applied to plants by foliar application compared to known amidines. The data are to be seen merely by way of example and are not limiting for the purposes of the invention.

[3] = Hydrolysis stability test in homogeneous aqueous solution; format: physicochemical; conditions: 50° C., 24 hours, first order degradation assumed
Experimental: The chemical stability towards hydrolysis of the phenylamidines described in the prior art is good but an improved stability may be an advantage during the preparation and formulation processes in a large scale. The improved stability towards hydrolysis was proven by a hydrolysis stability test as described below: To produce a suitable preparation of active compound for the hydrolysis stability test, a 1000 ppm stock solution (1 mg/mL) of active compound in acetonitrile is prepared. Three aliquots of 100 μL are pipetted into HPLC vials and diluted with 750 μL acetonitrile. In each vial 850 μL of the appropriate buffer solution (pH4, pH7 and pH9, CertiPUR, Fa. Merck) is added. The buffer containing HPLC vials are incubated in a heated sample tray at 50° C. for 24 hours. The amount A of the active compound is analyzed by HPLC (UV-peak areas at 210 nm) at eight points in time t: 0 min, 140 min, 350 min, 560 min, 770 min, 980 min, 1190 min, 1400 min. The half-life time (T1/2) of each active compound is calculated via linear regression by using the following equations (first order degradation assumed): In table III the results of the hydrolysis stability test are shown for the compounds (I-01), (I-02), (I-03), (I-04) and (I-05) at various pH-values. […] 337 known from WO2008/110278. […] This increased stability will be of advantage during the preparation and formulation processes in a large scale compared to known amidines. The data are to be seen merely by way of example and are not limiting for the purposes of the invention.

[4] = test system: Phakopsora pachyrhizi; assay: In vivo preventive test on Phakopsora (soybeans); conditions: 7 days after inoculation
Experimental: To produce a suitable preparation of active compound, 1 part by weight of active compound is mixed with the stated amounts of solvent and emulsifier, and the concentrate is diluted with water to the desired concentration. To test for preventive activity, young plants are sprayed with the preparation of active compound at the stated rate of application. After the spray coating has dried on, the plants are inoculated with an aqueous spore suspension of the causal agent of soybean rust (Phakopsora pachyrhizi) and stay for 24 h without light in an incubation cabinet at approximately 24° C. and a relative atmospheric humidity of 95%. The plants remain in the incubation cabinet at approximately 24° C. and a relative atmospheric humidity of approximately 80% and a day/night interval of 12 h.

[5] = Log P by HPLC on reversed phase columns (EEC directive 79/831 Annex V.A8); format: physicochemical; conditions: LC-UV
Experimental: Measurement of Log P values was performed according to EEC directive 79/831 Annex V.A8 by HPLC (High Performance Liquid Chromatography) on reversed phase columns with the following methods: • ^[a] Log P value is determined by measurement of LC-UV, in an acidic range, with 0.1% formic acid in water and acetonitrile as eluent (linear gradient from 10% acetonitrile to 95% acetonitrile). • [b] Log P value is determined by measurement of LC-UV, in a neutral range, with 0.001 molar ammonium acetate solution in water and acetonitrile as eluent (linear gradient from 10% acetonitrile to 95% acetonitrile). […] Lambda-max-values were determined using UV-spectra from 200 nm to 400 nm and the peak values of the chromatographic signals.

[6] = test system: Pyrenophora teres; assay: In vivo preventive test on Pyrenophora teres (net blotch on barley); conditions: 500 ppm of active ingredient, 14 days after inoculation
Experimental: (§1) • Solvent: 5% by volume of Dimethyl sulfoxide • 10% by volume of Acetone • Emulsifier: 1 μl of Tween® 80 per mg of active ingredient
(§2) The active ingredients are made soluble and homogenized in a mixture of Dimethyl sulfoxide/Acetone//Tween® 80 and then diluted in water to the desired concentration.
The young plants of barley are treated by spraying the active ingredient prepared as described above. Control plants are treated only with an aqueous solution of Acetone/Dimethyl sulfoxide/Tween® 80.
After 24 hours, the plants are contaminated by spraying the leaves with an aqueous suspension of Pyrenophora teres spores. The contaminated barley plants are incubated for 48 hours at 20° C. and at 100% relative humidity and then for 12 days at 20° C. and at 70-80% relative humidity.
The test is evaluated 14 days after the inoculation. 0% means an efficacy which corresponds to that of the control plants while an efficacy of 100% means that no disease is observed.

[7] = test system: Septoria tritici; assay: In vivo preventive test on Septoria tritici (leaf spot on wheat); conditions: 500 ppm of active ingredient, 24 days after inoculation
Experimental: as §1, §2
(§3) The young plants of wheat are treated by spraying the active ingredient prepared as described above. Control plants are treated only with an aqueous solution of Acetone/Dimethyl sulfoxide/Tween® 80.
After 24 hours, the plants are contaminated by spraying the leaves with an aqueous suspension of Septoria tritici spores. The contaminated wheat plants are incubated for 72 hours at 18° C. and at 100% relative humidity and then for 21 days at 20° C. and at 90% relative humidity.
The test is evaluated 24 days after the inoculation. 0% means an efficacy which corresponds to that of the control plants while an efficacy of 100% means that no disease is observed.

[8] = test system: Puccinia recondita; assay: In vivo preventive test on Puccinia recondita (brown rust on wheat); conditions: 500 ppm of active ingredient, 11 days after inoculation
Experimental: as §1, §2, §3
After 24 hours, the plants are contaminated by spraying the leaves with an aqueous suspension of Puccinia recondita spores. The contaminated wheat plants are incubated for 24 hours at 20° C. and at 100% relative humidity and then for 10 days at 20° C. and at 70-80% relative humidity.
The test is evaluated 11 days after the inoculation. 0% means an efficacy which corresponds to that of the control plants while an efficacy of 100% means that no disease is observed.

[9] = buffer pH 7/acetonitrile, read-out: T1/2 (pH 7) (converted)
[10] = buffer pH 9/acetonitrile, read-out: T1/2 (pH 9) (converted)
[11] = acidic range, 0.1% formic acid in water and acetonitrile as eluent, read-out: LogP [a]
[12] = neutral range, 0.001 molar ammonium acetate solution in water and acetonitrile as eluent, read-out: LogP [b]

Row | half-life [2] [h] | half-life at 58.8 µg/mL [3, 9] [h] | half-life at 58.8 µg/mL [3, 10] [h] | chromatographic logP [5, 11] | SMILES | further results
1 | 10 | 24 | 16 |  | CCN(C)/C=N/c1cc(C)c(Oc2ccccc2)cc1C [Compound no. 1 known from WO2008/110313, reference compound] | Necrosis in % [1]: 90%
2 | 32 | 67 | 60 | 1.64 | CCN(C)/C=N/c1cc(Cl)c(Oc2ccccc2F)cc1C [Example I-01, N′-[5-chloro-4-(2-fluorophenoxy)-2-methylphenyl]-N-ethyl-N-methylimidoformamide] | efficacy ([4]; 100 ppm of active ingredient): at least 70%; chromatographic logP [5, 12]: 4.56; Necrosis in % [1]: 50%
3 | > 200 | 70 | 64 | 1.86 | CCN(C)C=Nc1cc(Cl)c(Oc2ccccc2Br)cc1C [Example I-02, N′-[4-(2-bromophenoxy)-5-chloro-2-methylphenyl]-N-ethyl-N-methylimidoformamide] | efficacy ([4]; 10 ppm of active ingredient): at least 70%; chromatographic logP [5, 12]: 5.13; efficacy [6]: at least 70%; efficacy [7]: at least 70%; efficacy [8]: at least 70%
4 | 59 | 63 | 53 | 1.55 | CCN(C)C=Nc1cc(Cl)c(Oc2ccccc2Cl)cc1C [Example I-03, N′-[5-chloro-4-(2-chlorophenoxy)-2-methylphenyl]-N-ethyl-N-methylimidoformamide] | 
5 | > 200 | 83 | 74 | 1.72 | CCN(C)C=Nc1cc(C(F)(F)F)c(Oc2ccccc2F)cc1C [Example I-04, N-ethyl-N′-[4-(2-fluorophenoxy)-2-methyl-5-(trifluoromethyl)phenyl]-N-methylimidoformamide] | 
6 | > 200 | 80 | 66 | 1.9 | CCN(C)C=Nc1cc(C(F)(F)F)c(Oc2ccccc2Br)cc1C [Example I-05, N′-[4-(2-bromophenoxy)-2-methyl-5-(trifluoromethyl)phenyl]-N-ethyl-N-methylimidoformamide] | 
7 | 34 | 61 | 55 | 1.81 | CCN(C)C=Nc1cc(Cl)c(Oc2ccccc2I)cc1C [Example I-06, N′-[5-chloro-4-(2-iodophenoxy)-2-methylphenyl]-N-ethyl-N-methylimidoformamide] | 
8 |  |  |  | 3.37 | Cc1cc(Oc2ccccc2Cl)c(Cl)cc1N [VIII-03, 5-chloro-4-(2-chlorophenoxy)-2-methylaniline] | 
9 |  |  |  | 3.68 | Cc1cc(Oc2ccccc2Br)c(C(F)(F)F)cc1N [VIII-05, 4-(2-bromophenoxy)-2-methyl-5-(trifluoromethyl) aniline] | 
10 |  | 25 | 17 |  | CCN(C)/C=N/c1cc(C)c(Oc2ccccc2F)cc1C [reference compound] | Necrosis in % [1]: 90%

Row | SMILES | half-life [2] [h] | half-life at 58.8 µg/mL [3, 9] [h] | half-life at 58.8 µg/mL [3, 10] [h] | chromatographic logP [5, 11] | further results
11 | Cc1cc(Oc2ccccc2Cl)c(Cl)cc1[N+](=O)[O-] [VI-03, 1-chloro-2-(2-chlorophenoxy)-4-methyl-5-nitrobenzene] |  |  |  | 4.51 | 
12 | Cc1cc(Oc2ccccc2Br)c(C(F)(F)F)cc1[N+](=O)[O-] [VI-05, 1-(2-bromophenoxy)-5-methyl-4-nitro-2-(trifluoromethyl)benzene] |  |  |  | 4.64 | 
